Values of other authors as cited in patent US8728545B2, “Extraction method for providing an organic certifiable Stevia rebaudiana extract” (Justbio Inc., priority 2010, dated 2014).
Peptide text beside a SMILES is read from it.

Experiments:
[1] = in water; Crammer and Ikan, 1986
[2] = for Sweetness compared to sucrose: principal steviol glycosides found in stevia leaves; for Relative sweetness among steviol glycosides (in words): comparison between glycosides, Crammer and Ikan 1986, 1987

Compound | Sweetness in Sucrose Equivalence (% SE) [1] [% SE] | Sweetness compared to sucrose [2] | Relative sweetness among steviol glycosides (in words) [2]
CC1=CC(=O)[N-]S(=O)(=O)O1.[K+] [Acesulfame-K] | 11.6 |  | 
COC(=O)[C@H](Cc1ccccc1)NC(=O)[C@@H](N)CC(=O)O [Aspartame] (H-Asp-Phe-OMe) | 16.0 |  | 
O=S(=O)([O-])NC1CCCCC1.[Na+] [Cyclamate-Na] | 15.2 |  | 
C=C1C[C@@]23CC[C@H]4[C@@](C)(CCC[C@@]4(C)C(=O)O[C@@H]4O[C@H](CO)[C@@H](O)[C@H](O)[C@H]4O)[C@@H]2CC[C@]1(O[C@@H]1O[C@H](CO)[C@@H](O)[C@H](O)[C@H]1O[C@@H]1O[C@@H](C)[C@H](O)[C@@H](O)[C@H]1O)C3 [Dulcoside A] |  | 50-120 fold | 
CC1(C)[C@@H](O[C@H]2O[C@H](C(=O)O)[C@@H](O)[C@H](O)[C@H]2O[C@@H]2O[C@H](C(=O)O)[C@@H](O)[C@H](O)[C@H]2O)CC[C@]2(C)[C@H]3C(=O)C=C4[C@@H]5C[C@@](C)(C(=O)O)CC[C@]5(C)CC[C@@]4(C)[C@]3(C)CC[C@@H]12.N [Monoammonium Glycyrhisinate] | 7.3 |  | 
COc1ccc(CCC(=O)c2c(O)cc(O[C@@H]3O[C@H](CO)[C@@H](O)[C@H](O)[C@H]3O[C@@H]3O[C@@H](C)[C@H](O)[C@@H](O)[C@H]3O)cc2O)cc1O [Neohesperidin Didydrochalcone] | 9.8 |  | 
COC(=O)[C@H](Cc1ccccc1)NC(=O)[C@H](CC(=O)O)NCCC(C)(C)C [Neotame] | 15.1 |  | 
C=C1C[C@@]23CC[C@H]4[C@@](C)(CCC[C@@]4(C)C(=O)O[C@@H]4O[C@H](CO)[C@@H](O)[C@H](O)[C@H]4O)[C@@H]2CC[C@]1(O[C@@H]1O[C@H](CO)[C@@H](O)[C@H](O[C@@H]2O[C@H](CO)[C@@H](O)[C@H](O)[C@H]2O)[C@H]1O[C@@H]1O[C@H](CO)[C@@H](O)[C@H](O)[C@H]1O)C3 [Rebaudioside A] |  | 250-450 fold | the sweetest
C=C1C[C@@]23CC[C@H]4[C@@](C)(CCC[C@@]4(C)C(=O)O[C@@H]4O[C@H](CO)[C@@H](O)[C@H](O)[C@H]4O[C@@H]4O[C@H](CO)[C@@H](O)[C@H](O)[C@H]4O)[C@@H]2CC[C@]1(O[C@@H]1O[C@H](CO)[C@@H](O)[C@H](O[C@@H]2O[C@H](CO)[C@@H](O)[C@H](O)[C@H]2O)[C@H]1O[C@@H]1O[C@H](CO)[C@@H](O)[C@H](O)[C@H]1O)C3 [Rebaudioside D] | 10.1 | 240-450 fold | as sweet as rebaudioside A
C=C1C[C@@]23CC[C@H]4[C@@](C)(CCC[C@@]4(C)C(=O)O[C@@H]4O[C@H](CO)[C@@H](O)[C@H](O)[C@H]4O[C@@H]4O[C@H](CO)[C@@H](O)[C@H](O)[C@H]4O)[C@@H]2CC[C@]1(O[C@@H]1O[C@H](CO)[C@@H](O)[C@H](O)[C@H]1O[C@@H]1O[C@H](CO)[C@@H](O)[C@H](O)[C@H]1O)C3 [Rebaudioside E] |  | 150-300 fold | as sweet as stevioside
O=C1[N-]S(=O)(=O)c2ccccc21.[Na+] [Saccharin-Na] | 10.1 |  | 
C=C1C[C@@]23CC[C@H]4[C@@](C)(CCC[C@@]4(C)C(=O)[O-])[C@@H]2CC[C@]1(O[C@@H]1O[C@@H](CO)[C@@H](O)[C@H](O)[C@@H]1O[C@@H]1O[C@@H](CO)[C@@H](O)[C@H](O)[C@@H]1O)C3.[Na+] [Steviobioside] |  | 100-125 fold | 
C=C1C[C@@]23CC[C@H]4[C@@](C)(CCC[C@@]4(C)C(=O)O[C@@H]4O[C@H](CO)[C@@H](O)[C@H](O)[C@H]4O)[C@@H]2CC[C@]1(O[C@@H]1O[C@H](CO)[C@@H](O)[C@H](O)[C@H]1O[C@@H]1O[C@H](CO)[C@@H](O)[C@H](O)[C@H]1O)C3 [Stevioside] |  | 300 fold | 
OC[C@H]1O[C@H](O[C@]2(CCl)O[C@H](CCl)[C@@H](O)[C@@H]2O)[C@H](O)[C@@H](O)[C@H]1Cl [Sucralose] | 13.0 |  | 
Rebaudioside B |  | 300-350 fold | 
Rebaudioside C |  | 50-120 fold | 
